Results reported in patent publication US11643391B2, “Prodrugs and conjugates of dimethyltryptamine” (priority 2021, dated 2023).

Tests used:
[1] = Stability in Mouse Plasma; type: in vitro ADME; details: for half-life: mouse, plasma
[2] = Stability in SGF with pepsin; type: physicochemical
[3] = Stability in SGF without pepsin; type: physicochemical
physchem = details: buffer, pH 6.5
[4] = Table 8, if calculated T½ < 0, T½ reported as 9999 min

CC(C)[N+](C)(CCOC(=O)C1c2ccccc2Oc2ccccc21)C(C)C [Propantheline, reference compound]
Remaining Percentage ([1]; Table 9, 0 min): 100.00% | Remaining Percentage ([1]; Table 9, 15 min): 85.78% | Remaining Percentage ([1]; Table 9, 30 min): 70.74% | Remaining Percentage ([1]; Table 9, 60 min): 29.46% | Remaining Percentage ([1]; Table 9, 120 min): 8.74% | Remaining Percentage ([1]; Table 11, 0 min): 100.00% | Remaining Percentage ([1]; Table 11, 15 min): 80.81% | Remaining Percentage ([1]; Table 11, 30 min): 64.04% | Remaining Percentage ([1]; Table 11, 60 min): 34.86% | Remaining Percentage ([1]; Table 11, 120 min): 9.05% | half-life ([1]; Table 9, read-out: T½): 0.543 h | half-life ([1]; Table 11, read-out: T½): 0.568 h

C[N+](C)(CCc1c[nH]c2ccccc12)COP(=O)([O-])O [VLS-02-23]
Remaining Percentage ([2]; Table 10, 0 min): 100.00% | Remaining Percentage ([2]; Table 10, 30 min): 96.70% | Remaining Percentage ([2]; Table 10, 60 min): 106.43% | Remaining Percentage ([2]; Table 10, 120 min): 102.36% | Remaining Percentage ([2]; Table 10, 240 min): 96.82% | half-life ([2]; Table 10, read-out: T½): 104 h | T½ ([3]; Table 10): 166.65 h | Remaining Percentage ([3]; Table 10, 0 min): 100.00% | Remaining Percentage ([3]; Table 10, 30 min): 98.76% | Remaining Percentage ([3]; Table 10, 60 min): 107.08% | Remaining Percentage ([3]; Table 10, 120 min): 101.90% | Remaining Percentage ([3]; Table 10, 240 min): 108.80% | Remaining Percentage ([1]; Table 11, 0 min): 100.00% | Remaining Percentage ([1]; Table 11, 15 min): 114.24% | Remaining Percentage ([1]; Table 11, 30 min): 110.21% | Remaining Percentage ([1]; Table 11, 60 min): 109.95% | Remaining Percentage ([1]; Table 11, 120 min): 91.16% | half-life ([1]; Table 11, read-out: T½): 9.47 h | T½ (Stability in PBS pH 6.5; Table 10): 166.65 h | Remaining Percentage (Stability in PBS pH 6.5; Table 10, 0 min): 100.00% | Remaining Percentage (Stability in PBS pH 6.5; Table 10, 30 min): 104.71% | Remaining Percentage (Stability in PBS pH 6.5; Table 10, 60 min): 106.37% | Remaining Percentage (Stability in PBS pH 6.5; Table 10, 120 min): 107.29% | Remaining Percentage (Stability in PBS pH 6.5; Table 10, 240 min): 117.35%

CCCCC(=O)Oc1cccc2ccn(CCN(C)C)c12 [VLS-03-1]
Peak Area of MRM: 205.0/159.8 (analyte VLS-03-1 Parent) ([2]; 0 min): 5.72E+04 | Peak Area of MRM: 205.0/159.8 (analyte VLS-03-1 Parent) ([2]; 30 min): 5.37E+04 | Peak Area of MRM: 205.0/159.8 (analyte VLS-03-1 Parent) ([2]; 60 min): 5.01E+04 | Peak Area of MRM: 205.0/159.8 (analyte VLS-03-1 Parent) ([2]; 120 min): 5.48E+04 | Peak Area of MRM: 205.0/159.8 (analyte VLS-03-1 Parent) ([2]; 240 min): 5.27E+04 | Remaining Percentage ([2]; Table 8, 0 min): 100.00% | Remaining Percentage ([2]; Table 8, 30 min): 101.74% | Remaining Percentage ([2]; Table 8, 60 min): 90.49% | Remaining Percentage ([2]; Table 8, 120 min): 102.16% | Remaining Percentage ([2]; Table 8, 240 min): 96.47% | half-life [2, 4]: 149 h | Peak Area of MRM: 205.0/159.8 (analyte VLS-03-1 Parent) ([2]; VLS-03-1 standard): 4.22E+04 | Peak Area of MRM: 205.0/159.8 (analyte VLS-03-1 Parent) ([3]; 0 min): 4.53E+04 | Peak Area of MRM: 205.0/159.8 (analyte VLS-03-1 Parent) ([3]; 30 min): 4.75E+04 | Peak Area of MRM: 205.0/159.8 (analyte VLS-03-1 Parent) ([3]; 60 min): 4.51E+04 | Peak Area of MRM: 205.0/159.8 (analyte VLS-03-1 Parent) ([3]; 120 min): 4.66E+04 | Peak Area of MRM: 205.0/159.8 (analyte VLS-03-1 Parent) ([3]; 240 min): 4.57E+04 | Remaining Percentage ([3]; Table 8, 0 min): 100.00% | Remaining Percentage ([3]; Table 8, 30 min): 106.25% | Remaining Percentage ([3]; Table 8, 60 min): 99.72% | Remaining Percentage ([3]; Table 8, 120 min): 104.22% | Remaining Percentage ([3]; Table 8, 240 min): 103.22% | T½ [3, 4]: 166.65 h | Peak Area of MRM: 205.0/159.8 (analyte VLS-03-1 Parent) ([3]; VLS-03-1 standard): 3.75E+04 | Remaining Percentage ([1]; Table 9, 0 min): 100.00% | Remaining Percentage ([1]; Table 9, 15 min): 0.00% | Remaining Percentage ([1]; Table 9, 30 min): 0.00% | Remaining Percentage ([1]; Table 9, 60 min): 0.00% | Remaining Percentage ([1]; Table 9, 120 min): 0.00% | Peak Area of MRM: 205.0/159.8 (analyte VLS-03-1 Parent) (Stability in PBS pH 6.5; 0 min): 5.04E+04 | Peak Area of MRM: 205.0/159.8 (analyte VLS-03-1 Parent) (Stability in PBS pH 6.5; 30 min): 4.71E+04 | Peak Area of MRM: 205.0/159.8 (analyte VLS-03-1 Parent) (Stability in PBS pH 6.5; 60 min): 4.71E+04 | Peak Area of MRM: 205.0/159.8 (analyte VLS-03-1 Parent) (Stability in PBS pH 6.5; 120 min): 4.86E+04 | Peak Area of MRM: 205.0/159.8 (analyte VLS-03-1 Parent) (Stability in PBS pH 6.5; 240 min): 4.75E+04 | Remaining Percentage (Stability in PBS pH 6.5; Table 8, 0 min): 100.00% | Remaining Percentage (Stability in PBS pH 6.5; Table 8, 30 min): 96.32% | Remaining Percentage (Stability in PBS pH 6.5; Table 8, 60 min): 99.71% | Remaining Percentage (Stability in PBS pH 6.5; Table 8, 120 min): 100.03% | Remaining Percentage (Stability in PBS pH 6.5; Table 8, 240 min): 101.35% | T½ (Stability in PBS pH 6.5; [4]): 166.65 h | Peak Area of MRM: 205.0/159.8 (analyte VLS-03-1 Parent) (Stability in PBS pH 6.5; VLS-03-1 standard): 4.49E+04

CC(OC(=O)C(C)C)OC(=O)n1cc(CCN(C)C)c2ccccc21 (stereo not shown) [VLS-03-10]
Peak Area of MRM: 188.7/144.0 (analyte VLS-03-10 Parent) ([2]; 0 min): 5.13E+03 | Peak Area of MRM: 188.7/144.0 (analyte VLS-03-10 Parent) ([2]; 30 min): 5.10E+03 | Peak Area of MRM: 188.7/144.0 (analyte VLS-03-10 Parent) ([2]; 60 min): 5.25E+03 | Peak Area of MRM: 188.7/144.0 (analyte VLS-03-10 Parent) ([2]; 120 min): 5.32E+03 | Peak Area of MRM: 188.7/144.0 (analyte VLS-03-10 Parent) ([2]; 240 min): 5.28E+03 | Remaining Percentage ([2]; Table 8, 0 min): 100.00% | Remaining Percentage ([2]; Table 8, 30 min): 96.82% | Remaining Percentage ([2]; Table 8, 60 min): 93.09% | Remaining Percentage ([2]; Table 8, 120 min): 91.42% | Remaining Percentage ([2]; Table 8, 240 min): 89.32% | half-life [2, 4]: 26.7 h | Peak Area of MRM: 188.7/144.0 (analyte VLS-03-10 Parent) ([2]; VLS-03-10 standard): 4.05E+03 | Peak Area of MRM: 188.7/144.0 (analyte VLS-03-10 Parent) ([3]; 0 min): 5.29E+03 | Peak Area of MRM: 188.7/144.0 (analyte VLS-03-10 Parent) ([3]; 30 min): 4.98E+03 | Peak Area of MRM: 188.7/144.0 (analyte VLS-03-10 Parent) ([3]; 60 min): 4.66E+03 | Peak Area of MRM: 188.7/144.0 (analyte VLS-03-10 Parent) ([3]; 120 min): 4.93E+03 | Peak Area of MRM: 188.7/144.0 (analyte VLS-03-10 Parent) ([3]; 240 min): 4.61E+03 | Remaining Percentage ([3]; Table 8, 0 min): 100.00% | Remaining Percentage ([3]; Table 8, 30 min): 99.86% | Remaining Percentage ([3]; Table 8, 60 min): 104.95% | Remaining Percentage ([3]; Table 8, 120 min): 98.41% | Remaining Percentage ([3]; Table 8, 240 min): 98.86% | half-life [3, 4]: 117 h | Peak Area of MRM: 188.7/144.0 (analyte VLS-03-10 Parent) ([3]; VLS-03-10 standard): 3.46E+03 | Remaining Percentage ([1]; Table 9, 0 min): 100.00% | Remaining Percentage ([1]; Table 9, 15 min): 0.00% | Remaining Percentage ([1]; Table 9, 30 min): 0.00% | Remaining Percentage ([1]; Table 9, 60 min): 0.00% | Remaining Percentage ([1]; Table 9, 120 min): 0.00% | half-life (physchem): 331 h | Peak Area of MRM: 188.7/144.0 (analyte VLS-03-10 Parent) (Stability in PBS pH 6.5; 0 min): 5.32E+03 | Peak Area of MRM: 188.7/144.0 (analyte VLS-03-10 Parent) (Stability in PBS pH 6.5; 30 min): 4.68E+03 | Peak Area of MRM: 188.7/144.0 (analyte VLS-03-10 Parent) (Stability in PBS pH 6.5; 60 min): 5.00E+03 | Peak Area of MRM: 188.7/144.0 (analyte VLS-03-10 Parent) (Stability in PBS pH 6.5; 120 min): 4.72E+03 | Peak Area of MRM: 188.7/144.0 (analyte VLS-03-10 Parent) (Stability in PBS pH 6.5; 240 min): 4.95E+03 | Remaining Percentage (Stability in PBS pH 6.5; Table 8, 0 min): 100.00% | Remaining Percentage (Stability in PBS pH 6.5; Table 8, 30 min): 92.62% | Remaining Percentage (Stability in PBS pH 6.5; Table 8, 60 min): 100.03% | Remaining Percentage (Stability in PBS pH 6.5; Table 8, 120 min): 92.63% | Remaining Percentage (Stability in PBS pH 6.5; Table 8, 240 min): 97.66% | Peak Area of MRM: 188.7/144.0 (analyte VLS-03-10 Parent) (Stability in PBS pH 6.5; VLS-03-10 standard): 4.34E+03
